Assays:
[1] = xn = mol fraction of the nth substance listed; details: 101.3 kPa, Liquid
[2] = 101.33 kPa, Liquid

CCCNCCC [dipropylamine] + ClC(Cl)Cl
[1]
Details | mass density, 303.15 K [kg/m3] | mass density, 313.15 K [kg/m3] | viscosity, 303.15 K [mPa·s] | viscosity, 313.15 K [mPa·s]
x1 = 0.0105 | 1457.85 | 1435.95 | 0.525 | 0.473
x1 = 0.0217 | 1444.32 | 1422.68 | 0.531 | 0.476
x1 = 0.0311 | 1433.19 | 1411.78 | 0.535 | 0.48
x1 = 0.0411 | 1421.35 | 1400.29 | 0.539 | 0.483
x1 = 0.051 | 1409.85 | 1389.04 | 0.544 | 0.486
x1 = 0.0608 | 1398.52 | 1378.03 | 0.548 | 0.488
x1 = 0.0708 | 1387.22 | 1366.94 | 0.552 | 0.492
x1 = 0.0808 | 1376 | 1356.01 | 0.558 | 0.494
x1 = 0.0914 | 1364.32 | 1344.6 | 0.561 | 0.497

CCN(CC)CC [triethylamine] + CCC(C)=O
[1], 303.15 K
Details | mass density [kg/m3] | viscosity [mPa·s]
x1 = 0.011 | 798.96 | 0.362
x1 = 0.0217 | 798.22 | 0.36
x1 = 0.0315 | 797.6 | 0.357
x1 = 0.0413 | 796.87 | 0.355
x1 = 0.0508 | 796.32 | 0.353
x1 = 0.0597 | 795.5 | 0.351
x1 = 0.0697 | 794.8 | 0.347
x1 = 0.0801 | 794.25 | 0.344
x1 = 0.0915 | 793.37 | 0.341
x1 = 0.1022 | 792.79 | 0.338

CCCCN(CCCC)CCCC [tributylamine]
[2]
Details | mass density [kg/m3] | viscosity [mPa·s]
303.15 K | 770.21 | 1.167
313.15 K | 763.11 | 0.97

CCN(CC)CC [triethylamine] + CCCCOC(C)=O
[1], 303.15 K
Details | mass density [kg/m3] | viscosity [mPa·s]
x1 = 0.0065 | 870.3 | 0.641
x1 = 0.0144 | 869.1 | 0.638
x1 = 0.0226 | 867.85 | 0.631
x1 = 0.0293 | 866.83 | 0.628
x1 = 0.0378 | 865.53 | 0.623
x1 = 0.0454 | 864.42 | 0.618
x1 = 0.0509 | 863.54 | 0.613
x1 = 0.0596 | 862.22 | 0.607
x1 = 0.0668 | 861.13 | 0.603
x1 = 0.0733 | 860.14 | 0.599

CCN(CC)CC [triethylamine] + Clc1ccccc1
[1], 303.15 K
Details | mass density [kg/m3] | viscosity [mPa·s]
x1 = 0.0118 | 1089.87 | 0.709
x1 = 0.0193 | 1086.26 | 0.702
x1 = 0.0299 | 1081.32 | 0.694
x1 = 0.0415 | 1075.87 | 0.685
x1 = 0.0493 | 1072.21 | 0.677
x1 = 0.0595 | 1067.48 | 0.672
x1 = 0.071 | 1062.15 | 0.664
x1 = 0.0792 | 1058.37 | 0.658
x1 = 0.0893 | 1053.74 | 0.652
x1 = 0.0994 | 1049.13 | 0.645

O=[N+]([O-])c1ccccc1 [nitrobenzene]
[2], 303.15 K
Details | mass density [kg/m3] | viscosity [mPa·s]
– | 1193.4 | 1.617

Clc1ccccc1 [chlorobenzene]
[2], 303.15 K
Details | mass density [kg/m3] | viscosity [mPa·s]
– | 1095.49 | 0.718

— the NIST ThermoML archive (doi:10.1016/j.tca.2004.08.013)
